Source: ChEMBL document CHEMBL4825686, “HTS-based discovery and optimization of novel positive allosteric modulators of the α7 nicotinic acetylcholine receptor” (Eur J Med Chem, 2021)
Values after ≈ are worked out from the molar mass of the structure shown. Each block holds one compound with its values, some of them ahead of it.

Experiments:
[1] = molecular target: T1, Neuronal acetylcholine receptor subunit alpha-7 (Homo sapiens, UniProt P36544); test: Positive allosteric modulator activity at human alpha7 nAChR expressed in Flp-In-HEK293 cells co-expressing RIC-3 assessed as potentiation of PNU282987-induced calcium influx measured after 10 mins by FLIPR assay; format: cell-based, Flp-In-293
T1 sequence (P36544 whole entry): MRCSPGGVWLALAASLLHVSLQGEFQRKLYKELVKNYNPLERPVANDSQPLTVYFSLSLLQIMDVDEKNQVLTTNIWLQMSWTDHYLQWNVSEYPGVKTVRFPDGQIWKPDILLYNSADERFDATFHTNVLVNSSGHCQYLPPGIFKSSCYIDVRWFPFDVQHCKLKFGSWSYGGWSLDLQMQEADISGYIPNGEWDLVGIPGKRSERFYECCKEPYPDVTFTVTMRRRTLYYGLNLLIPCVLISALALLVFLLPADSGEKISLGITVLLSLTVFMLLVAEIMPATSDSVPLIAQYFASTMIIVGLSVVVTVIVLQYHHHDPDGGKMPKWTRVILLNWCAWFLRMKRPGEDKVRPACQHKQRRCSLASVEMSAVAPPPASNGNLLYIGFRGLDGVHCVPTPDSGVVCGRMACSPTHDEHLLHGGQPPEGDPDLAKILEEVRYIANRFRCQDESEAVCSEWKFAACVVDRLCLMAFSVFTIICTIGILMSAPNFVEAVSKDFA

[2] = Metabolic stability in human liver microsomes assessed as intrinsic clearance at 1 uM measured per mg protein upto 40 mins; format: ADME, Microsome; settings: read-out: CLH
[3] = Kinetic solubility of compound; format: physicochemical; settings: read-out: Kinetic_solubility
[4] = Metabolic stability in NMRI mouse liver microsomes assessed as intrinsic clearance at 1 uM measured per mg protein upto 40 mins; format: ADME, Microsome; settings: read-out: CLH
[5] = Metabolic stability in Wistar rat liver microsomes assessed as intrinsic clearance at 1 uM measured per mg protein upto 40 mins; format: ADME, Microsome; settings: read-out: CLH
[6] = molecular target: T1, Neuronal acetylcholine receptor subunit alpha-7; test: Positive allosteric modulator activity at human alpha7 nAChR expressed in Flp-In-HEK293 cells co-expressing RIC-3 assessed as potentiation of PNU282987-induced calcium influx at 10 uM measured after 10 mins by FLIPR assay; format: cell-based; settings: Flp-In-293
[7] = Mutagenicity in Salmonella typhimurium TA1535 in presence of rat liver S9 fraction by AMES test; format: toxicity, subcellular; settings: salmonella enterica subsp. enterica serovar typhimurium
[8] = Mutagenicity in Salmonella typhimurium TA100 in absence of rat liver S9 fraction by AMES test; format: toxicity; settings: salmonella enterica subsp. enterica serovar typhimurium
[9] = Mutagenicity in Salmonella typhimurium TA1535 in absence of rat liver S9 fraction by AMES test; format: toxicity; settings: salmonella enterica subsp. enterica serovar typhimurium
[10] = Mutagenicity in Salmonella typhimurium TA1537 in presence of rat liver S9 fraction by AMES test; format: toxicity, subcellular; settings: salmonella enterica subsp. enterica serovar typhimurium
[11] = Mutagenicity in Salmonella typhimurium TA98 in presence of rat liver S9 fraction by AMES test; format: toxicity, subcellular; settings: salmonella enterica subsp. enterica serovar typhimurium
[12] = Mutagenicity in Escherichia coli WP2 uvrA in presence of rat liver S9 fraction by AMES test; format: toxicity, subcellular
[13] = Mutagenicity in Salmonella typhimurium TA100 in presence of rat liver S9 fraction by AMES test; format: toxicity, subcellular; settings: salmonella enterica subsp. enterica serovar typhimurium
[14] = Mutagenicity in Salmonella typhimurium TA1537 in absence of rat liver S9 fraction by AMES test; format: toxicity; settings: salmonella enterica subsp. enterica serovar typhimurium
[15] = Mutagenicity in Escherichia coli WP2 uvrA in absence of rat liver S9 fraction by AMES test; format: toxicity
[16] = Mutagenicity in Salmonella typhimurium TA98 in absence of rat liver S9 fraction by AMES test; format: toxicity; settings: salmonella enterica subsp. enterica serovar typhimurium

EC50 ([1]; read-out: EC50): 490 nM | microsomal CLint at 1 µM [2]: 24 µL/min/mg | solubility kinetic [3]: 18.9 µM (≈ 7.12 µg/mL)
Structure (SMILES): Cc1ccc(CN2CCN(C(=O)NCc3ccc4c(ccn4C)c3)CC2)cc1

EC50 ([1]; read-out: EC50): 3300 nM | solubility kinetic [3]: 5.6 µM (≈ 2.11 µg/mL)
Structure (SMILES): Cc1ccc(CN2CCN(C(=O)C(=O)Nc3ccn4cccc4c3)CC2)cc1

EC50 ([1]; read-out: EC50): 400 nM | microsomal CLint at 1 µM [4]: 46 µL/min/mg | microsomal CLint at 1 µM [2]: 0.3 µL/min/mg | solubility kinetic [3]: 47.4 µM (≈ 18.6 µg/mL) | microsomal CLint at 1 µM [5]: 56 µL/min/mg
Structure (SMILES): Cc1ccc(CN2CCN(C(=O)C(=O)Nc3cnc4c(ccn4C)c3)CC2)cc1

EC50 ([1]; read-out: EC50): 820 nM | microsomal CLint at 1 µM [4]: 18 µL/min/mg | microsomal CLint at 1 µM [2]: 71 µL/min/mg | solubility kinetic [3]: 95 µM (≈ 37.3 µg/mL) | microsomal CLint at 1 µM [5]: 23 µL/min/mg
Structure (SMILES): Cc1ccc(CN2CCN(C(=O)C(=O)Nc3ccc4c(c3)CCN4C)CC2)cc1

EC50 ([1]; flp-in-293): Not Active
Structure (SMILES): Cc1ccc(CN2CCC(NC(=O)Nc3ccc4c(ccn4C)c3)CC2)cc1

EC50 ([1]; read-out: EC50): 3000 nM
Structure (SMILES): Cc1ccc(OCC2CN(C(=O)C(=O)Nc3ccc4c(ccn4C)c3)C2)cc1

EC50 ([1]; read-out: EC50): 260 nM
Structure (SMILES): Cc1ccc(OC2CCN(C(=O)C(=O)Nc3ccc4[nH]ccc4c3)CC2)cc1

EC50 ([1]; read-out: EC50): 600 nM
Structure (SMILES): Cc1ccc(CN2CCC(C(=O)C(=O)Nc3ccc4c(ccn4C)c3)CC2)cc1

Activity [6]: 7%
Structure (SMILES): Cc1ccc(CN2CCN(C(=O)C(=O)Cc3ccc4c(ccn4C)c3)CC2)cc1

EC50 ([1]; read-out: EC50): 40 nM
Structure (SMILES): Cc1ccc(OCC2CN(C(=O)NCc3ccc4c(ccn4C)c3)C2)cc1

EC50 ([1]; flp-in-293): Not Active | microsomal CLint at 1 µM [2]: 2 µL/min/mg | solubility kinetic [3]: 14.9 µM (≈ 6.03 µg/mL)
Structure (SMILES): Cc1ccc(CN2C[C@@H](C)N(C(=O)C(=O)Nc3ccc4[nH]ccc4c3)C[C@@H]2C)cc1

EC50 ([1]; read-out: EC50): 210 nM
Structure (SMILES): Cc1ccc(OC2CCN(C(=O)NCc3ccc4c(ccn4C)c3)CC2)cc1

EC50 ([1]; flp-in-293): Not Active
Structure (SMILES): Cc1ccc(CN2CCC(c3nnc(C(=O)Nc4ccc5c(ccn5C)c4)o3)CC2)cc1

EC50 ([1]; read-out: EC50): 55 nM
Structure (SMILES): Cn1ccc2cc(CNC(=O)N3CC(COc4ccc(Cl)cc4)C3)ccc21

EC50 ([1]; read-out: EC50): 650 nM | microsomal CLint at 1 µM [4]: 156 µL/min/mg | microsomal CLint at 1 µM [2]: 90 µL/min/mg | solubility kinetic [3]: 10 µM (≈ 3.86 µg/mL) | microsomal CLint at 1 µM [5]: 127 µL/min/mg
Structure (SMILES): Cc1ccc(Oc2cnc(C(=O)C(=O)Nc3ccc4c(ccn4C)c3)cn2)cc1

EC50 ([1]; read-out: EC50): 180 nM
Structure (SMILES): Cn1ccc2cc(CNC(=O)N3CC(COc4ccccc4)C3)ccc21

EC50 ([1]; flp-in-293): Not Active | solubility kinetic [3]: 0.1 µM (≈ 0.0412 µg/mL)
Structure (SMILES): Cn1ccc2cc(NC(=O)C(=O)c3cnc(Oc4ccc(Cl)cc4)s3)ccc21

EC50 ([1]; read-out: EC50): 910 nM
Structure (SMILES): Cc1ccc(CC2CCN(C(=O)C(=O)Nc3ccc4[nH]ccc4c3)CC2)cc1

EC50 ([1]; flp-in-293): Not Active
Structure (SMILES): COCC(C(=O)Nc1ccc2c(ccn2C)c1)N1CCC(Oc2ccc(C)cc2)CC1 (stereo unspecified)

EC50 ([1]; read-out: EC50): 1400 nM | solubility kinetic [3]: 12.5 µM (≈ 5.11 µg/mL)
Structure (SMILES): Cc1ccc(CN2CCN(C(=O)C(=O)Nc3ccc4c(F)cn(C)c4c3)CC2)cc1
Activity [7]: Toxic | Activity [8]: Toxic | Activity [9]: Toxic | Activity [10]: Toxic | Activity [11]: Toxic | Activity [12]: Toxic | Activity [13]: Toxic | Activity [14]: Toxic | Activity [15]: Toxic | Activity [16]: Toxic

EC50 ([1]; read-out: EC50): 25 nM
Structure (SMILES): Cn1ccc2cc(CNC(=O)N3CC(COc4ccc(OC(F)(F)F)cc4)C3)ccc21

EC50 ([1]; read-out: EC50): 920 nM | microsomal CLint at 1 µM [4]: 198 µL/min/mg | microsomal CLint at 1 µM [2]: 17 µL/min/mg | solubility kinetic [3]: 5 µM (≈ 2.02 µg/mL) | microsomal CLint at 1 µM [5]: 140 µL/min/mg
Structure (SMILES): Cc1ccc(CN2CCN(C(=O)C(=O)Nc3ccc4c(c3)c(C)cn4C)CC2)cc1
Activity [7]: Toxic | Activity [8]: Toxic | Activity [9]: Toxic | Activity [10]: Toxic | Activity [11]: Toxic | Activity [12]: Toxic | Activity [13]: Toxic | Activity [14]: Toxic | Activity [15]: Toxic | Activity [16]: Toxic

EC50 ([1]; read-out: EC50): 350 nM
Structure (SMILES): Cn1ccc2cc(CNC(=O)N3CC(COc4ccc(C#N)cc4)C3)ccc21

EC50 ([1]; read-out: EC50): 60 nM | microsomal CLint at 1 µM [4]: 46 µL/min/mg | microsomal CLint at 1 µM [2]: 34 µL/min/mg | solubility kinetic [3]: 2 µM (≈ 0.769 µg/mL) | microsomal CLint at 1 µM [5]: 48 µL/min/mg
Structure (SMILES): Cc1ccc(Oc2ccc(C(=O)C(=O)Nc3ccc4c(ccn4C)c3)cc2)cc1
